Patent publication US5925632A, “Derivatives of 3-pyrrolidylidene-2-one-cephalsporines” (Hoffmann-La Roche Inc., priority 1995, dated 1999)
Converted amounts (≈) assume the structure as drawn. Structures can show the parent of a compound that is named as a salt.

How the values were obtained:
Assay in all cases: MIC, agar dilution method in Mueller Hinton agar
Format in all cases: cell-based
[1] = tested on: Actinetobacter sp. 51-156; details: read-out: MIC (Minimum Inhibiting Concentration)
Description: (§1) In vitro activity was determined by minimum inhibitory concentration in a microorganism spectum by the agar dilution method in Mueller Hinton agar.

C. freundii 43 = details: Citrobacter freundii, read-out: MIC (Minimum Inhibiting Concentration)
Description: as §1

C. freundii 902 = details: Citrobacter freundii, read-out: MIC (Minimum Inhibiting Concentration)
Description: as §1

E. cloacae 908R = details: Enterobacter cloacae, read-out: MIC (Minimum Inhibiting Concentration)
Description: as §1

E. cloacae 908SSi = details: Enterobacter cloacae, read-out: MIC (Minimum Inhibiting Concentration)
Description: as §1

E. coli 25922 = details: Escherichia coli, read-out: MIC (Minimum Inhibiting Concentration)
Description: as §1

E. faecalis 6 = details: Enterococcus faecalis, read-out: MIC (Minimum Inhibiting Concentration)
Description: as §1

K. pneumoniae 418 = details: Klebsiella pneumoniae, read-out: MIC (Minimum Inhibiting Concentration)
Description: as §1

L. monocytogenes BK23 = details: Listeria monocytogenes, read-out: MIC (Minimum Inhibiting Concentration)
Description: as §1

M. catarrhalis RA21 = details: Moraxella catarrhalis, read-out: MIC (Minimum Inhibiting Concentration)
Description: as §1

M. morganii 6H-137 = details: Morganella morganii, 6H137, read-out: MIC (Minimum Inhibiting Concentration)
Description: as §1

P. mirabilis 2117 = details: Proteus mirabilis, read-out: MIC (Minimum Inhibiting Concentration)
Description: as §1

S. agalactiae QK44 = details: Streptococcus agalactiae, read-out: MIC (Minimum Inhibiting Concentration)
Description: as §1

S. aureus 6538 = details: Staphylococcus aureus, read-out: MIC (Minimum Inhibiting Concentration)
Description: as §1

S. aureus 734 MRSA = details: Staphylococcus aureus, read-out: MIC (Minimum Inhibiting Concentration)
Description: as §1

S. marcescens 69438 = details: Serratia marcescens, read-out: MIC (Minimum Inhibiting Concentration)
Description: as §1

S. pneumoniae Q19 = details: Streptococcus pneumoniae, read-out: MIC (Minimum Inhibiting Concentration)
Description: as §1

S. pyogenes B15 = details: Streptococcus pyogenes, read-out: MIC (Minimum Inhibiting Concentration)
Description: as §1

S. viridans group 016 = details: Streptococcus viridans, GROUP016, read-out: MIC (Minimum Inhibiting Concentration)
Description: as §1

X. maltophilia 1AC739 = details: Stenotrophomonas maltophilia, read-out: MIC (Minimum Inhibiting Concentration)
Description: as §1

H. influenzae 1 = details: Haemophilus influenzae, read-out: MIC (Minimum Inhibiting Concentration)
Description: as §1

N. meningitidis 69480 = details: Neisseria meningitidis, read-out: MIC (Minimum Inhibiting Concentration)
Description: as §1

P. aeruginosa 27853 = details: Pseudomonas aeruginosa, read-out: MIC (Minimum Inhibiting Concentration)
Description: as §1

P. vulgaris 1028 = details: Proteus vulgaris, read-out: MIC (Minimum Inhibiting Concentration)
Description: as §1

MIC [1] [µg/mL] | MIC (C. freundii 43) [µg/mL] | MIC (C. freundii 902) [µg/mL] | MIC (E. cloacae 908R) [µg/mL] | MIC (E. cloacae 908SSi) [µg/mL] | MIC (E. coli 25922) [µg/mL] | MIC (E. faecalis 6) [µg/mL] | MIC (K. pneumoniae 418) [µg/mL] | MIC (L. monocytogenes BK23) [µg/mL] | MIC (M. catarrhalis RA21) [µg/mL] | MIC (M. morganii 6H-137) [µg/mL] | MIC (P. mirabilis 2117) [µg/mL] | MIC (S. agalactiae QK44) [µg/mL] | MIC (S. aureus 6538) [µg/mL] | MIC (S. aureus 734 MRSA) [µg/mL] | MIC (S. marcescens 69438) [µg/mL] | MIC (S. pneumoniae Q19) [µg/mL] | MIC (S. pyogenes B15) [µg/mL] | MIC (S. viridans group 016) [µg/mL] | MIC (X. maltophilia 1AC739) [µg/mL] | SMILES | further results
16 | 4 | 0.25 | 16 | 0.5 | 0.25 | 1 | 0.5 | 4 | 1 | 0.25 | 0.25 | 0.25 | 1 | 4 | 1 | ≤ 0.06 | ≤ 0.06 | ≤ 0.06 | > 32 | CC(C)CN1CC/C(=C\C2=C(C(=O)O)N3C(=O)[C@@H](NC(=O)/C(=N\O)c4csc(N)n4)[C@H]3SC2)C1=O.O=C(O)C(F)(F)F [A, (6R,7R)-7-[(Z)-2-(2-amino-thiazol-4-yl)-2-hydroxyiminoacetylamino]-3-[(E)-1-isobutyl-2-oxo-pyrrolidin-3-ylidenemethyl]-8-oxo-5-thia-1-azabicyclo[4.2.0]oct-2-ene-2-carboxylic acid trifluoroacetate] | 
> 32 | > 32 | 16 (≈ 40.5 µM) | > 32 | 32 (≈ 80.9 µM) | 0.25 (≈ 0.632 µM) | 8 (≈ 20.2 µM) | 0.12 (≈ 0.303 µM) | 16 (≈ 40.5 µM) | 1 (≈ 2.53 µM) | 8 (≈ 20.2 µM) | 0.12 (≈ 0.303 µM) | 0.25 (≈ 0.632 µM) | 0.5 (≈ 1.26 µM) | > 32 | 16 (≈ 40.5 µM) | 0.25 (≈ 0.632 µM) | ≤ 0.06 | 2 (≈ 5.06 µM) | > 32 | C=CC1=C(C(=O)O)N2C(=O)[C@@H](NC(=O)/C(=N\O)c3csc(N)n3)[C@H]2SC1 [Cefdinir, reference compound] | MIC (H. influenzae 1): 0.5 µg/mL (≈ 1.26 µM); MIC (N. meningitidis 69480): ≤ 0.06 µg/mL; MIC (P. aeruginosa 27853): > 32 µg/mL; MIC (P. vulgaris 1028): 1 µg/mL (≈ 2.53 µM)
32 | 8 | 1 | 32 | 2 | 1 | 2 | 1 | 4 | 16 | 0.5 | 0.25 | 0.5 | 1 | 16 | 4 | ≤ 0.06 | ≤ 0.06 | 1 | > 32 | CC(C)(C)CN1CC/C(=C\C2=C(C(=O)O)N3C(=O)[C@@H](NC(=O)/C(=N\O)c4csc(N)n4)[C@H]3SC2)C1=O [B, (6R,7R)-7-[(Z)-2-(2-amino-thiazol-4-yl)-2-(hydroxyiminoacetylamino]-3-[(E)-1-(2,2-dimethyl-propyl)-2-oxo-pyrrolidin-3-ylidenemethyl]-8-oxo-5-thia-1-azabicyclo[4.2.0]oct-2-ene-2-carboxylic acid trifluoroacetate] | MIC (P. vulgaris 1028): 4 µg/mL
16 | 8 | 1 | 16 | 2 | 1 | 2 | 1 | 4 | 16 | 4 | 0.5 | 0.25 | 1 | 8 | 4 | ≤ 0.06 | ≤ 0.06 | 0.5 | > 32 | Nc1nc(/C(=N/O)C(=O)N[C@@H]2C(=O)N3C(C(=O)O)=C(/C=C4\CCN(CC5CCCCC5)C4=O)CS[C@H]23)cs1 [C, (6R,7R)-7-[(Z)-2-(2-amino-thiazol-4-yl)-2-(hydroxyiminoacetylamino]-3-[(E)-1-cyclohexylmethyl-2-oxo-pyrrolidin-3-ylidenemethyl]-8-oxo-5-thia-1-azabicyclo[4.2.0]oct-2-ene-2-carboxylic acid trifluoroacetate] | MIC (P. vulgaris 1028): 0.5 µg/mL
32 (≈ 57.7 µM) | 32 (≈ 57.7 µM) | 0.25 (≈ 0.451 µM) | > 32 | 0.25 (≈ 0.451 µM) | ≤ 0.06 | > 32 | ≤ 0.06 | > 16 | 1 (≈ 1.8 µM) | ≤ 0.06 | ≤ 0.06 | ≤ 0.06 | 4 (≈ 7.21 µM) | > 32 | 0.25 (≈ 0.451 µM) | ≤ 0.06 | ≤ 0.06 | 0.25 (≈ 0.451 µM) | > 32 | CO/N=C(\C(=O)N[C@@H]1C(=O)N2C(C(=O)O)=C(CSc3nc(=O)c(=O)[nH]n3C)CS[C@H]12)c1csc(N)n1 [Ceftriaxone, [6R-[6a,7b(Z)]]-7-([[2-Amino-4-thiazolyl)(methoxyimino)acetyl]amino]-8-oxo-3-[[(1,2,5,6-tetrahydro-2-methyl-5,6dioxo-1,2,4-triazin-3-yl)thio]methyl]-5-thia-1-azabicyclo[4.2.0]oct-2-ene-2-carboxylic acid, reference compound] | MIC (H. influenzae 1): ≤ 0.06 µg/mL; MIC (N. meningitidis 69480): ≤ 0.01 µg/mL; MIC (P. aeruginosa 27853): 16 µg/mL (≈ 28.9 µM); MIC (P. vulgaris 1028): 0.12 µg/mL (≈ 0.216 µM)
